pIC50: −log10 of the molar value.
Columns and labels:
[1] = system: T-cell; assay: IL-2 secretion from T-cells stimulated with anti-CD3 antibody alone (Biological Example 2); assay type: cell-based, human; settings: T-cell, 1 μM Cbl-b inhibitor, read-out: IL-2 secretion Anti-CD3 stimulation
[2] = system: T-cell; assay: CD25 cell surface staining on T-cells stimulated with anti-CD3 antibody alone (Biological Example 2); assay type: cell-based, human; settings: T-cell, 1 μM Cbl-b inhibitor, read-out: CD25 staining Anti-CD3 stimulation
[3] = system: T-cell; assay: CD25 cell surface staining on T-cells co-stimulated with anti-CD3 and anti-CD28 antibody (Biological Example 2); assay type: cell-based, human; settings: Homo sapiens, T-cell, read-out: CD25 staining Anti-CD3/Anti-CD28 stimulation; for fold induction at 0.3 µM: 0.3 μM Cbl-b inhibitor; for fold induction at 1 µM: 1 μM Cbl-b inhibitor
Procedure, shortened: (§1)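 No assay protocol given; T-cells stimulated with anti-CD3 alone or anti-CD3 plus anti-CD28, with or without Cbl-b inhibitor. Activation read as IL-2 secretion or CD25 surface staining, expressed as fold over baseline from uninhibited cells […].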

[4] = system: T-cell; assay: IL-2 secretion from T-cells co-stimulated with anti-CD3 and anti-CD28 antibody (Biological Example 2); assay type: cell-based, human; settings: Homo sapiens, T-cell, read-out: IL-2 secretion Anti-CD3/Anti-CD28 stimulation; for fold induction at 0.3 µM: 0.3 μM Cbl-b inhibitor; for fold induction at 1 µM: 1 μM Cbl-b inhibitor
Procedure, shortened: as §1

[5] = molecular target: T1, Cbl-b (Homo sapiens, UniProt Q13191); assay: Cbl-b activity assay (Cbl-b inhibition assay), TR-FRET of Cbl-b interaction with UbcH5B-Ub; assay type: biochemical; settings: assay buffer with 100 mM NaCl, 60 nM Src kinase; read-out: Cbl-b activity IC50
T1 sequence (Q13191 36-427): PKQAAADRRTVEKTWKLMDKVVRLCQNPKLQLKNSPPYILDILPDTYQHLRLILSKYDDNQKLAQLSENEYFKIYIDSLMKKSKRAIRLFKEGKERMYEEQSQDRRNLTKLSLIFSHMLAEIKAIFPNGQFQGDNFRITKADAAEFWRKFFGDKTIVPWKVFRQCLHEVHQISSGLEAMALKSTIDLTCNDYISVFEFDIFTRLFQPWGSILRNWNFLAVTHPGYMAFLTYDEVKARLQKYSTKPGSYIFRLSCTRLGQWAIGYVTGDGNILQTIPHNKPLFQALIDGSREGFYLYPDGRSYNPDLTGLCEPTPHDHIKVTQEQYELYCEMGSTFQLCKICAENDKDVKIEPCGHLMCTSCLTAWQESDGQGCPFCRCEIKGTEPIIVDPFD
Procedure, shortened: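 TR-FRET readout of Cbl-b binding to Bodipy-fluorescein N-terminally labeled Ub conjugated to UbcH5B C85K, measured with compound present. After compound incubation, 60 nM Src kinase with 1 mM ATP and 5 mM MgCl2 (final) was added for 1.5 h, then a further 1 h incubation; asterisked values used 50 mM NaCl buffer and 30 nM Src.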

[6] = molecular target: T1, Cbl-b; assay: Cbl-b inhibition assay (Cbl-b activity assay, FRET, Biological Example 1; 100 mM NaCl, 60 nM Src kinase); assay type: biochemical; settings: upper bound stated in text lists; read-out: IC50 values in the Cbl-b inhibition assay of Biological Example 1
Procedure, shortened: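 TR-FRET assay using N-terminal biotinylated Avi-tagged Cbl-b bound to streptavidin-terbium, Src kinase for Cbl-b phosphorylation, and UbcH5B irreversibly conjugated to Bodipy-Fluorescein-ubiquitin. Phosphorylated Cbl-b binds UbcH5B-Ub, bringing the fluorophores together; inhibition is read as loss of FRET signal.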

[7] = Homo sapiens, fold change over baseline (anti-CD3/anti-CD28 stimulated T-cells without inhibitor)
[8] = fold change over baseline (anti-CD3/anti-CD28 stimulated T-cells without inhibitor)
[9] = fold change over baseline, primary human total T-cells

Row | SMILES | fold induction at 1 µM [1, 7] | fold induction at 1 µM [2, 7] | fold induction at 0.3 µM [3, 8] | fold induction at 1 µM [3, 8] | fold induction at 0.3 µM [4, 8] | fold induction at 1 µM [4, 8] | pIC50 [5] | pIC50 [6] | fold induction at 1 µM [1, 9] | fold induction at 1 µM [2, 9] | fold induction at 0.3 µM [3, 9] | fold induction at 1 µM [3, 9] | fold induction at 0.3 µM [4, 9] | fold induction at 1 µM [4, 9]
1 | Cn1cnnc1CC1(c2cccc(N3Cc4c(cc(CN5CCCC5)nc4C4CC4)C3=O)c2)COC1 [Example 579, 4-Cyclopropyl-2-(3-(3-((4-methyl-4H-1,2,4-triazol-3-yl)methyl)oxetan-3-yl)phenyl)-6-(pyrrolidin-1-ylmethyl)-2,3-dihydro-1H-pyrrolo[3,4-c]pyridin-1-one] | < 0.05 | < 0.6 | 1.01 to 1.3 | 1.01 to 1.3 | 1.01 to 2.5 | 2.51 to 5 | > 7.00 | ≥ 7.00 |  |  |  |  |  | 
2 | C[C@@H](c1cc2c(c(C(F)(F)F)c1)CN(c1cccc(C3(C(F)(F)c4nncn4C)COC3)c1)C2=O)N1CC[C@H](F)C1 [Example 570, 2-(3-(3-(Difluoro(4-methyl-4H-1,2,4-triazol-3-yl)methyl)oxetan-3-yl)phenyl)-6-((S)-1-((S)-3-fluoropyrrolidin-1-yl)ethyl)-4-(trifluoromethyl)isoindolin-1-one] | > 0.201 | > 1 | 1.31 to 1.5 | 1.51 to 1.75 | 2.51 to 5 | > 7.5 | > 7.00 | ≥ 7.00 |  |  |  |  |  | 
3 | Cc1cc(C(=O)Nc2cccc(C3(C(F)(F)c4nncn4C)CC3)c2)nc(C2CC2)n1 [Compound 346, 2-cyclopropyl-N-(3-{1-[difluoro(4-methyl-4H-1,2,4-triazol-3-yl)methyl]cyclopropyl}phenyl)-6-methylpyrimidine-4-carboxamide] |  |  |  |  |  |  | > 7.00 | ≥ 7.00 | 0.101 to 0.15 | 0.601 to 0.8 | 1.01 to 1.3 | 1.01 to 1.3 | 1.01 to 2.5 | 2.51 to 5
4 | Cn1cnnc1[C@@H](F)C1(c2cccc(N3Cc4c(cc(CN5CCCC5)cc4C(F)(F)F)C3=O)c2)COC1 [Example 673a, (S)-2-(3-(3-(fluoro(4-methyl-4H-1,2,4-triazol-3-yl)methyl)oxetan-3-yl)phenyl)-6-(pyrrolidin-1-ylmethyl)-4-(trifluoromethyl)isoindolin-1-one] | > 0.201 | 0.801 to 1 | > 1.76 | > 1.76 | 5 to 7.5 | > 7.5 | > 7.00 | ≥ 7.00 |  |  |  |  |  | 
5 | C[C@@H](c1cc2c(c(C(F)(F)F)c1)CN(c1cccc(C3(Cc4nncn4C)COC3)c1)C2=O)N1CC(F)C1 [Example 668b, (S)-6-(1-(3-fluoroazetidin-1-yl)ethyl)-2-(3-(3-((4-methyl-4H-1,2,4-triazol-3-yl)methyl)oxetan-3-yl)phenyl)-4-(trifluoromethyl)isoindolin-1-one] | 0.151 to 0.2 | > 1 | 1.31 to 1.5 | 1.51 to 1.75 | 5 to 7.5 | > 7.5 | > 7.00 | ≥ 7.00 |  |  |  |  |  | 
6 | Cn1cnnc1OC1(c2cccc(N3Cc4c(cc(CN5CCC(F)CC5)cc4C(F)(F)F)C3=O)c2)COC1 [Example 700, 6-((4-fluoropiperidin-1-yl)methyl)-2-(3-(3-((4-methyl-4H-1,2,4-triazol-3-yl)oxy)oxetan-3-yl)phenyl)-4-(trifluoromethyl)isoindolin-1-one] | < 0.05 | 0.601 to 0.8 | 1.01 to 1.3 | 1.31 to 1.5 | 1.01 to 2.5 | 2.51 to 5 | 6.52 to 7.00 | ≥ 6.52 |  |  |  |  |  | 
7 | Cn1cnnc1CC1(c2cccc(N3Cc4c(cc(CN5CC[C@H](c6ccccc6)C5)cc4C(F)(F)F)C3=O)c2)COC1 [Example 662a, (R)-2-(3-(3-((4-methyl-4H-1,2,4-triazol-3-yl)methyl)oxetan-3-yl)phenyl)-6-((3-phenylpyrrolidin-1-yl)methyl)-4-(trifluoromethyl)isoindolin-1-one] | > 0.201 | 0.801 to 1 | 1.01 to 1.3 | 1.01 to 1.3 | 5 to 7.5 | > 7.5 | > 7.00 | ≥ 7.00 |  |  |  |  |  | 
8 | CN1C[C@H]2C[C@@H]1CN2c1cc2c(c(C(F)(F)F)c1)CN(c1cccc(C3(Cc4nncn4C)COC3)c1)C2=O [Example 569, 2-(3-(3-((4-Methyl-4H-1,2,4-triazol-3-yl)methyl)oxetan-3-yl)phenyl)-6-((1R,4R)-5-methyl-2,5-diazabicyclo[2.2.1]heptan-2-yl)-4-(trifluoromethyl)isoindolin-1-one] | > 0.201 | > 1 | 1.31 to 1.5 | 1.31 to 1.5 | > 7.5 | > 7.5 | > 7.00 | ≥ 7.00 |  |  |  |  |  | 
9 | Cn1cnnc1CC1(c2cccc(N3Cc4c(cc(N5CC6(C5)CC(F)(F)C6)cc4C(F)(F)F)C3=O)c2)COC1 [Example 602, 6-(6,6-difluoro-2-azaspiro[3.3]heptan-2-yl)-2-(3-(3-((4-methyl-4H-1,2,4-triazol-3-yl)methyl)oxetan-3-yl)phenyl)-4-(trifluoromethyl)isoindolin-1-one] | 0.101 to 0.15 | > 1 | 1.01 to 1.3 | 1.31 to 1.5 | 5 to 7.5 | > 7.5 | > 7.00 | ≥ 7.00 |  |  |  |  |  | 
10 | CN1C[C@H]2CC[C@@H](C1)N2c1cc(C(=O)Nc2cccc(C3(Cc4nncn4C)COC3)c2)nc(C2CC2)n1 [Example 573, 2-Cyclopropyl-N-(3-(3-((4-methyl-4H-1,2,4-triazol-3-yl)methyl)oxetan-3-yl)phenyl)-6-((1R,5S)-3-methyl-3,8-diazabicyclo[3.2.1]octan-8-yl)pyrimidine-4-carboxamide] | > 0.201 | > 1 | 1.31 to 1.5 | 1.51 to 1.75 | 5 to 7.5 | > 7.5 | > 7.00 | ≥ 7.00 |  |  |  |  |  | 
11 | Cn1cnnc1CC1(c2cccc(N3Cc4c(cc(N5CC(C(F)F)C5)nc4C4CC4)C3=O)c2)COC1 [Example 609, 4-cyclopropyl-6-(3-(difluoromethyl)azetidin-1-yl)-2-(3-(3-((4-methyl-4H-1,2,4-triazol-3-yl)methyl)oxetan-3-yl)phenyl)-2,3-dihydro-1H-pyrrolo[3,4-c]pyridin-1-one] | 0.101 to 0.15 | 0.801 to 1 | 1.01 to 1.3 | 1.01 to 1.3 | 2.51 to 5 | 5 to 7.5 | > 7.00 | ≥ 7.00 |  |  |  |  |  | 
12 | Cn1cnnc1CC1(c2cccc(N3Cc4c(ccnc4C(F)(F)F)C3=O)c2)COC1 [Example 696, 2-(3-(3-((4-methyl-4H-1,2,4-triazol-3-yl)methyl)oxetan-3-yl)phenyl)-4-(trifluoromethyl)-2,3-dihydro-1H-pyrrolo[3,4-c]pyridin-1-one] | < 0.05 | 0.601 to 0.8 | 1.01 to 1.3 | 1.01 to 1.3 | 1.01 to 2.5 | 1.01 to 2.5 | > 7.00 | ≥ 7.00 |  |  |  |  |  | 
13 | Cn1cnnc1CC1(c2cccc(NC(=O)c3[nH]nc4c3OCCC4)c2)COC1 [Compound 343, N-(3-(3-((4-Methyl-4H-1,2,4-triazol-3-yl)methyl)oxetan-3-yl)phenyl)-2,5,6,7-tetrahydropyrano[3,2-c]pyrazole-3-carboxamide] |  |  |  |  |  |  | > 7.00 | ≥ 7.00 | 0.051 to 0.1 | 0.601 to 0.8 | 1.01 to 1.3 | 1.01 to 1.3 | 1.01 to 2.5 | 1.01 to 2.5

Source: US20220324835A1 (Nurix Therapeutics, Inc., priority 2018, published 2022)
